Results from patent publication US20230210999A1, “TARGETED PROTEASE DEGRADATION (TED) PLATFORM” (EUBULUS BIOTHERAPEUTICS INC., priority 2020, published 2023).
Where two headings read alike, the source gives them in different places.

Columns and labels:
Type in all cases: cell-based, human
[1] = tested on: MV4;11 cells; test: Cell proliferation experiment (Alamar blue, 72 h), MV4;11; conditions: Homo sapiens
Description: (§1) Reagents: RPMI-1640 medium, McCoy's 5A medium, IMDM medium, MEM medium, L-15 medium, fetal bovine serum. Penicillin-Streptomycin double antibody, trypsin, etc., 2-mercaptoethanol, NEAA, pyruvate, etc.
(§2) The cells were cultured in conventional ways, and the cells should be passed at least 2 generations before plating. Cells at the logarithmic growth phase were collected, prepared into single cell suspensions and counted. The concentration of cells was adjusted to the desired concentration, and cells were inoculated into a 96-well cell culture plate at 100 μl per well. 100 μL of complete medium of the test compound were added to each well, set up 2 duplicate wells for each concentration, and diluted with a 5-fold gradient, and continued to culture for 72 h. All cells were subjected to IC50 test for corresponding samples. The experimental results are shown in Test Example 4.
(§3) The fluorescence intensity of each well was detected using the Alarm blue method, and IC50 was calculated.
(§4) IC50 was calculated according to the following formula:
(§5) Y=Max+(Min−Max)/[1+(X/IC50)×Slope]
(§6) wherein Min, Max and Slope represent the minimum, maximum and slope respectively.

[2] = tested on: Daudi cells; test: Cell proliferation experiment, Daudi; conditions: Homo sapiens, Daudi, Daudi cells; read-out: Inhibitory activity IC50 on Daudi
Description: as §1, §2, §3, §4, §5, §6

[3] = tested on: NCIH82 cells; test: Cell proliferation experiment, NCI-H82; conditions: Homo sapiens, NCI-H82, NCI-H82 cells; read-out: Inhibitory activity IC50 on NCI-H82
Description: as §1, §2, §3, §4, §5, §6

[4] = MV4-11, MV4;11 cells, read-out: Inhibitory activity IC50 on MV4;11

| SMILES | IC50 ([1]; MV4-11, 72 h, MV4;11 cells, 72 h, read-out: Inhibitory activity IC50 of tested compounds on MV4;11 cells) | IC50 [1, 4] | IC50 [2] | IC50 [3] |
| --- | --- | --- | --- | --- |
| O=C1CCC(N2Cc3c(C#CCNCCOCCOCCOCCNC(=O)[C@H]4CC[C@H](Oc5cccc(Cl)c5F)CC4Cc4cccc(Nc5nccs5)n4)cccc3C2=O)C(=O)N1 (some centres unmarked) [Compound 860] | > 1000 nM |  |  |  |
| CC[C@@H]1C(=O)N(C)c2cnc(Nc3ccc(-c4cn(CCCOCCCNCCC#Cc5cccc6c5CN(C5CCC(=O)NC5=O)C6=O)nn4)cc3OC)nc2N1C1CCCC1 (some centres unmarked) [UB-180938] |  | 10 to 100 nM | 10 to 100 nM |  |
| O=C1CCC(N2Cc3c(C#CCCNCCOCCn4cc(-c5ccc(Nc6ncc7c(n6)-c6ccc(Cl)cc6C(c6c(F)cccc6F)=NC7)cc5)nn4)cccc3C2=O)C(=O)N1 (centres unmarked) [UB-180944] |  | 100 to 1000 nM | > 1000 nM | > 1000 nM |
| O=C1CCC(N2Cc3c(NC(=O)CNCCOCCN4CCC(n5cc(-c6ccc(Nc7ncc8c(n7)-c7ccc(Cl)cc7C(c7c(F)cccc7F)=NC8)cc6)nn5)CC4)cccc3C2=O)C(=O)N1 (centres unmarked) [UB-180945] |  | 100 to 1000 nM | > 1000 nM | > 1000 nM |
| O=C1CCC(N2Cc3c(C#CCCNCCCOCCCn4cc(-c5ccc(Nc6ncc7c(n6)-c6ccc(Cl)cc6C(c6c(F)cccc6F)=NC7)cc5)nn4)cccc3C2=O)C(=O)N1 (centres unmarked) [UB-180946] |  | 100 to 1000 nM | > 1000 nM | 100 to 1000 nM |
| O=C1CCC(N2Cc3cc(NC(=O)CCOCCOCCOCCNC(=O)c4ccc(Nc5ncc6c(n5)-c5ccc(Cl)cc5C(c5c(F)cccc5F)=NC6)cc4)ccc3C2=O)C(=O)N1 (centres unmarked) [UB-180947] |  | 10 to 100 nM | 100 to 1000 nM | > 1000 nM |
| O=C1CCC(N2Cc3cc(NC(=O)CCOCCOCCOCCNC(=O)[C@]4(Cc5cccc(Nc6nccs6)n5)CC[C@@H](Oc5cccc(Cl)c5F)CC4)ccc3C2=O)C(=O)N1 (some centres unmarked) [UB-180948] |  | 10 to 100 nM | > 1000 nM | > 1000 nM |
| CCNC(=O)C#Cc1ccc2c(c1)NC(=O)/C2=C(\Nc1ccc(CNCCOCCOCCC(=O)N[C@H](C(=O)N2C[C@H](O)C[C@H]2C(=O)NCc2ccc(-c3scnc3C)cc2)C(C)(C)C)cc1)c1ccccc1 [UB-180951] |  | 100 to 1000 nM | > 1000 nM | 100 to 1000 nM |
| CCNC(=O)C=C(Cl)c1ccc2c(c1)NC(=O)/C2=C(\Nc1ccc(CNCCOCCOCCOCCOCCC(=O)Nc2cccc3c2CN(C2CCC(=O)NC2=O)C3=O)cc1)c1ccccc1 (centres unmarked) [UB-180952] |  | > 1000 nM | > 1000 nM | > 1000 nM |
| O=C1CCC(N2Cc3cc(NC(=O)CNCCOCCOCCOCCNC(=O)[C@]4(Cc5cccc(Nc6nccs6)n5)CC[C@@H](Oc5cccc(Cl)c5F)CC4)ccc3C2=O)C(=O)N1 (some centres unmarked) [UB-180953] |  | 100 to 1000 nM | > 1000 nM | > 1000 nM |
| O=C1CCC(N2Cc3cc(NC(=O)CNCCOCCOCCOCCNC(=O)c4ccc(Nc5ncc6c(n5)-c5ccc(Cl)cc5C(c5c(F)cccc5F)=NC6)cc4)ccc3C2=O)C(=O)N1 (centres unmarked) [UB-180954] |  | 100 to 1000 nM | > 1000 nM | > 1000 nM |
| CCNC(=O)C#Cc1ccc2c(c1)NC(=O)/C2=C(\Nc1ccc(CNCCOCCOCCOCCOCCC(=O)N[C@H](C(=O)N2C[C@H](O)C[C@H]2C(=O)NCc2ccc(-c3scnc3C)cc2)C(C)(C)C)cc1)c1ccccc1 [UB-180955] |  | 100 to 1000 nM | > 1000 nM | > 1000 nM |
| CCNC(=O)C#Cc1ccc2c(c1)NC(=O)/C2=C(\Nc1ccc(CNCCOCCOCCOCCOCCC(=O)Nc2cccc3c2CN(C2CCC(=O)NC2=O)C3=O)cc1)c1ccccc1 (centres unmarked) [UB-180956] |  | 100 to 1000 nM | > 1000 nM | > 1000 nM |
| CCNC(=O)C#Cc1ccc2c(c1)NC(=O)/C2=C(\Nc1ccc(CNCCOCCOCCOCCOCC(=O)N[C@H](C(=O)N2C[C@H](O)C[C@H]2C(=O)NCc2ccc(-c3scnc3C)cc2)C(C)(C)C)cc1)c1ccccc1 [UB-180958] |  | 100 to 1000 nM | > 1000 nM | > 1000 nM |
| O=C1CCC(N2Cc3c(NC(=O)CCOCCOCCN[C@H]4CC[C@@H](NC(=O)c5ccc(Nc6ncc7c(n6)-c6ccc(Cl)cc6C(c6c(F)cccc6F)=NC7)cc5)CC4)cccc3C2=O)C(=O)N1 (some centres unmarked) [UB-180959] |  | 100 to 1000 nM | > 1000 nM | > 1000 nM |
| O=C1CCC(N2Cc3cc(NC(=O)CCOCCOCCN[C@H]4CC[C@@H](NC(=O)c5ccc(Nc6ncc7c(n6)-c6ccc(Cl)cc6C(c6c(F)cccc6F)=NC7)cc5)CC4)ccc3C2=O)C(=O)N1 (some centres unmarked) [UB-180960] |  | 100 to 1000 nM | > 1000 nM | > 1000 nM |
| CCNC(=O)C#Cc1ccc2c(c1)NC(=O)/C2=C(\Nc1ccc(CNCCOCCOCCOCCOCC(=O)Nc2cccc3c2CN(C2CCC(=O)NC2=O)C3=O)cc1)c1ccccc1 (centres unmarked) [UB-180962] |  | 100 to 1000 nM | > 1000 nM | > 1000 nM |
| CCNC(=O)C#Cc1ccc2c(c1)NC(=O)/C2=C(\Nc1ccc(CNCCOCCOCCOCCOCC(=O)Nc2ccc3c(c2)CN(C2CCC(=O)NC2=O)C3=O)cc1)c1ccccc1 (centres unmarked) [UB-180963] |  | 10 to 100 nM | > 1000 nM | > 1000 nM |
| CCNC(=O)C#Cc1ccc2c(c1)NC(=O)/C2=C(\Nc1ccc(CNCCOCCOCCC(=O)Nc2cccc3c2CN(C2CCC(=O)NC2=O)C3=O)cc1)c1ccccc1 (centres unmarked) [UB-180964] |  | 100 to 1000 nM | > 1000 nM | > 1000 nM |
| O=C1CCC(N2Cc3cc(C#CCCNCCOCCOCCOCCn4cc(-c5ccc(Nc6ncc7c(n6)-c6ccc(Cl)cc6C(c6c(F)cccc6F)=NC7)cc5)nn4)ccc3C2=O)C(=O)N1 (centres unmarked) [UB-180965] |  | 100 to 1000 nM | > 1000 nM | 100 to 1000 nM |
| O=C1CCC(N2Cc3c(C#CCCOCCN[C@H]4CC[C@@H](n5cc(-c6ccc(Nc7ncc8c(n7)-c7ccc(Cl)cc7C(c7c(F)cccc7F)=NC8)cc6)nn5)CC4)cccc3C2=O)C(=O)N1 (some centres unmarked) [UB-180966] |  | > 1000 nM | > 1000 nM | > 1000 nM |
| CCNC(=O)C#Cc1ccc2c(c1)NC(=O)/C2=C(\Nc1ccc(CNCCOCCOCCC(=O)Nc2ccc3c(c2)CN(C2CCC(=O)NC2=O)C3=O)cc1)c1ccccc1 (centres unmarked) [UB-180967] |  | 100 to 1000 nM | 100 to 1000 nM | > 1000 nM |
| CC[C@@H]1C(=O)N(C)c2cnc(Nc3ccc(-c4nnc(C5CCC(NCCOCCC#Cc6cccc7c6CN(C6CCC(=O)NC6=O)C7=O)CC5)o4)cc3OC)nc2N1C1CCCC1 (some centres unmarked) [UB-180968] |  | < 10 nM | 100 to 1000 nM |  |
| CC[C@@H]1C(=O)N(C)c2cnc(Nc3ccc(-c4cn(CCOCCOC[C@@H](N)CC#Cc5cccc6c5CN(C5CCC(=O)NC5=O)C6=O)nn4)cc3OC)nc2N1C1CCCC1 (some centres unmarked) [UB-180969] |  | 10 to 100 nM | 100 to 1000 nM |  |
| CC[C@@H]1C(=O)N(C)c2cnc(Nc3ccc(-c4cn([C@H]5CC[C@@H](NCCCCCC#Cc6ccc7c(c6)CN(C6CCC(=O)NC6=O)C7=O)CC5)nn4)cc3OC)nc2N1C1CCCC1 (some centres unmarked) [UB-180984] |  | < 10 nM | 10 to 100 nM |  |
| CC[C@@H]1C(=O)N(C)c2cnc(Nc3ccc(C(=O)N[C@H]4CC[C@@H](NCCCCCC#Cc5ccc6c(c5)CN(C5CCC(=O)NC5=O)C6=O)CC4)cc3OC)nc2N1C1CCCC1 (some centres unmarked) [UB-180985] |  | < 10 nM | < 10 nM |  |
| NC(=O)c1ccccc1Nc1nc(Nc2ccc(C3CCN(C(=O)NCCCCNCCC#Cc4ccc5c(c4)CN(C4CCC(=O)NC4=O)C5=O)CC3)cc2)ncc1Cl (centres unmarked) [UB-181206] |  |  | 100 to 1000 nM | 100 to 1000 nM |
| NC(=O)c1ccccc1Nc1nc(Nc2ccc(C3CCN(C(=O)NCCCNCCCC#Cc4ccc5c(c4)CN(C4CCC(=O)NC4=O)C5=O)CC3)cc2)ncc1Cl (centres unmarked) [UB-181207] |  |  | > 1000 nM | > 1000 nM |
| NC(=O)c1ccccc1Nc1nc(Nc2ccc(N3CCN(C(=O)NCCCCNCCC#Cc4ccc5c(c4)CN(C4CCC(=O)NC4=O)C5=O)CC3)cc2)ncc1Cl (centres unmarked) [UB-181208] |  |  | 10 to 100 nM | 100 to 1000 nM |
